Laboratory results from US8071611B2, “Spirocyclic heterocyclic derivatives and methods of their use” (Adolor Corporation, priority 2003, dated 2011).
Structures can show the parent of a compound that is named as a salt. Where two headings read alike, the source gives them in different places.

Columns and labels:
[1] = molecular target: T1, cloned human μ opioid receptor (Homo sapiens, UniProt P35372); test: Receptor binding: inhibition of [3H]diprenorphine binding to cloned human μ opioid receptor; conditions: for % Inhibition at 10 μM (μ): [3H]diprenorphine binding, cloned human μ opioid receptor; for inhibition at 10 µM: read-out: % Inhibition at 10 μM (μ)
T1 construct: expressed in transfected cells; host or cells: CHO cells (membranes)
T1 sequence (P35372 whole entry): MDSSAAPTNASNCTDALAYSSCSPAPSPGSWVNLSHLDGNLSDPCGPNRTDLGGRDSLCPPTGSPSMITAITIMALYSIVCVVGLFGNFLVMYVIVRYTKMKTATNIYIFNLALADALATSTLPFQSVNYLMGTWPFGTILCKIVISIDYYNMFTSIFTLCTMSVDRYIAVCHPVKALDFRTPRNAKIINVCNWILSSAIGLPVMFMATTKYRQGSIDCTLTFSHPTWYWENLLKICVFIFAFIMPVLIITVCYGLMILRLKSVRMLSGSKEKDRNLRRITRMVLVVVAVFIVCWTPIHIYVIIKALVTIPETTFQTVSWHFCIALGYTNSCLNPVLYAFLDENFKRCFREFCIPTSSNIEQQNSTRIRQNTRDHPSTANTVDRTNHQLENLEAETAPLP
Protocol: (§1) IC50 values were obtained by nonlinear analysis of the data using GraphPad Prism version 3.00 for Windows (GraphPad Software, San Diego). Ki values were obtained by Cheng-Prusoff corrections of IC50 values.
(§2) After dilution in buffer A and homogenization as before, membrane proteins (10-80 μg) in 250 μL were added to mixtures containing test compound and [^3H]diprenorphine (0.5 to 1.0 nM, 40,000 to 50,000 dpm) in 250 μL of buffer A in 96-well deep-well polystyrene titer plates (Beckman). After incubation at room temperature for one hour, the samples were filtered through GF/B filters that had been presoaked in a solution of 0.5% (w/v) polyethylenimine and 0.1% (w/v) bovine serum albumin in water. The filters were rinsed 4 times with 1 mL of cold 50 mM Tris HCl, pH 7.8 and radioactivity remaining on the filters determined by scintillation spectroscopy. Nonspecific binding was determined by the minimum values of the titration curves and was confirmed by separate assay wells containing 10 μM naloxone.
(§3) To determine the equilibrium dissociation constant for the inhibitors (Ki), radioligand bound (cpm) in the presence of various concentrations of test compounds was measured. The concentration to give half-maximal inhibition (EC50) of radioligand binding was determined from a best nonlinear regression fit to the following equation,
(§4) The nonlinear regression fit was performed using the program Prism® (GraphPad Software, San Diego, Calif.). The Ki values were then determined from the EC50 values by the following equation,
(§5) [formula] where [ligand] is the concentration of radioligand and Kd is the equilibrium dissociation constant for the radioligand.
as §1
(§6) [formula] where [ligand] is the concentration of radioligand and Kd is the equilibrium dissociation constant for the radioligand. Receptor-Mediated [^35S]GTP[…]S Binding

[2] = test system: forced swim behaviour in rats; test: Forced swim assay; assay type: in vivo, Male Sprague-Dawley rats; conditions: percent change ±SEM relative to vehicle-treated rats
Text: Male Sprague-Dawley rats (approximately 200 g) are placed in a tank of room temperature water for a fifteen min practice swim. Every five sec during the first five min of the practice swim, the rats are rated as immobile (floating with motion needed to keep head above the water), swimming (movement across the swim), or climbing (actively trying to climb out of the tank of water, upward directed movements of the forepaws). The percentage of time the rats spent in each of these responses is calculated.
Approximately 24 h after the practice swim, the rats are treated with vehicle or test compound and placed in the tank for a 5 min swim. As was the case with the practice swim, the rats are rated as immobile, swimming, or climbing during the test swim and the percentage of time spent in each of these responses is calculated. The data is analyzed by one-way ANOVA with post-hoc analysis to compare the behavioral response after vehicle treatment to the behavioral response after drug treatment for each of the three behavioral responses. The level of significance is set at p<0.05.

[3] = molecular target: T2, cloned human κ opioid receptor (Homo sapiens, UniProt P41145); test: Receptor binding: inhibition of [3H]diprenorphine binding to cloned human κ opioid receptor; conditions: for inhibition at 10 µM: read-out: % Inhibition at 10 μM (κ); for % Inhibition at 10 μM (κ): [3H]diprenorphine binding
T2 construct: expressed in transfected cells; host or cells: CHO cells (membranes)
T2 sequence (P41145 whole entry): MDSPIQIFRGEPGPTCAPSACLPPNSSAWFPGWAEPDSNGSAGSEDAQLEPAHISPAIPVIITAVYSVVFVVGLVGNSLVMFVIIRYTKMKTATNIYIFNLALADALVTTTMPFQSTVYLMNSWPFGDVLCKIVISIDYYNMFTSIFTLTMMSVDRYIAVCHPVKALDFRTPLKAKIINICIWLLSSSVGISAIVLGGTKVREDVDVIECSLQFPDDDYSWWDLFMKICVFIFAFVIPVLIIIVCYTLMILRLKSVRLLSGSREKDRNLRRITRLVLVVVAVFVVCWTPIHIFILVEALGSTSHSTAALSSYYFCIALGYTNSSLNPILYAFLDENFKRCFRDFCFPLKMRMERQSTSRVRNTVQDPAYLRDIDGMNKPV
Protocol: as §1, §2, §3, §4, §5, §1, §6

[4] = test system: castor oil-induced diarrhea in mice; test: Castor oil-induced diarrhea; assay type: in vivo; conditions: Mus musculus, sc, read-out: ED50 (incidence of castor oil-induced diarrhea)
Protocol: Mice were fasted overnight with water ad libitum. Mice were weighed, dosed orally with 0.6 mL of castor oil and placed in individual cubicles (11 cm×10 cm) lined with a pre-weighed sheet of absorbent paper. Thirty min after receiving castor oil, mice were injected s.c with tested compound. Seventy-five min after dosing with castor oil, the mice and absorbent paper were reweighed and the number of mice with diarrhea (defined as wet, unformed stool) was determined.
Percent inhibition by tested compounds in castor oil-induced diarrhea assay was determined by the following formula: […]

[5] = test system: FCA-induced hyperalgesia in rats; test: Freunds Complete Adjuvant (FCA)-induced hyperalgesia, paw pressure thresholds; assay type: in vivo
Protocol: Rats were injected intraplantar with FCA and 24 h later treated with tested compounds administered orally. Paw Pressure Thresholds (PPT) was assessed 30, 60, 120, and 240 minutes after drug treatment.

[6] = test system: acetic acid-induced writhing in mice; test: Acetic acid-induced writhing; assay type: in vivo, Male ICR mice; conditions: 30 mg/kg (s.c.)
Protocol: Male ICR mice weighing 20-25 g are injected s.c. with either vehicle or test compound 15 min before they are injected intraperitoneally with 0.6% acetic acid. […] treatment with acetic acid, the number of writhes is counted for 10 minutes. Dose response curves are expressed as the percent inhibition of acetic acid induced writhing, when compared to the mean number of writhes observed in the vehicle-treated mice. The mean percent inhibition (% I) of acetic acid-induced writhing for drug-treated mice is calculated according to the following formula: […]
The mean individual response is the mean number of writhes in mice treated with test compound. The mean vehicle response is the mean number of writhes in mice treated with vehicle.
Male ICR mice weighing 20-25 g are injected s.c. with either vehicle or test compound 15 minutes before they are injected intraperitoneally with 0.6% acetic acid. At 5 minutes after treatment with acetic acid, the number of writhes is counted for 10 minutes. Dose response curves are expressed as the percent inhibition of acetic acid induced writhing, when compared to the mean number of writhes observed in the vehicle-treated mice. The mean percent inhibition (% I) of acetic acid-induced writhing for drug-treated mice is calculated according to the following formula:
[formula] […]

[7] = molecular target: T3, cloned human δ opioid receptor (Homo sapiens, UniProt P41143); test: Receptor binding: inhibition of [3H]diprenorphine binding to cloned human δ opioid receptor
T3 construct: expressed in transfected cells; host or cells: CHO cells (membranes)
T3 sequence (P41143 whole entry): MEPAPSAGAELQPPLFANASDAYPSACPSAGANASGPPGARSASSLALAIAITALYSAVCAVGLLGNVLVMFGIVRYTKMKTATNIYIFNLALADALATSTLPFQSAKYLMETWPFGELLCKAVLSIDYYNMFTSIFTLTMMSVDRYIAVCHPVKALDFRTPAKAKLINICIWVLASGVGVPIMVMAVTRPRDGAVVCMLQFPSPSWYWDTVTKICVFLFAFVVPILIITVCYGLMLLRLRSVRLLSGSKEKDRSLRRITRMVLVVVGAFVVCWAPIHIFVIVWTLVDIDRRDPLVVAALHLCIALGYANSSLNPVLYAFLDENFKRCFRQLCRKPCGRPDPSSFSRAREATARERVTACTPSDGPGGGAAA
Protocol: as §1, §2, §3, §4, §5, §1, §6

[8] = molecular target: T3, cloned human δ opioid receptor; test: Receptor-mediated [35S]GTPγS binding, membranes containing cloned human δ opioid receptors; assay type: biochemical; conditions: agonist stimulation of [35S]GTPγS binding
Protocol: (§7) Assays are carried out in 96-well FlashPlates® (Perkin Elmer Life Sciences, Inc, Boston, Mass.). Membranes prepared from CHO cells expressing the appropriate receptor (50-100 μg of protein) are added to assay mixtures containing agonist with or without antagonists, 100 μM [^35S]GTPγS (approx. 100,000 dpm), 3.0 μM GDP, 75 mM NaCl, 15 mM MgCl2, 1.0 mM ethylene glycol-bis(β-aminoethyl ether)-N,N,N′,N′-tetracetic acid, 1.1 mM dithiothreitol, 10 μg/mL leupeptin, 10 μg/mL pepstatin A, 200 μg/mL bacitracin, and 0.5 μg/mL aprotinin in 50 mM Tris-HCl buffer, pH 7.8. After incubation at room temperature for one hour, the plates are sealed, centrifuged at 800×g in a swinging bucket rotor for 5 min and bound radioactivity determined with a TopCount microplate scintillation counter (Packard Instrument Co., Meriden, Conn.).
as §7, with “pM [^35S]GTP[…]S” for “μM [^35S]GTPγS”

[9] = [3H]diprenorphine displacement, cloned human δ opioid receptor, read-out: Ki(δ)

Structure (SMILES) | inhibition at 10 µM [3] [%] | Ki [7] [nM] | EC50 [8] [nM] | inhibition at 10 µM [1] [%] | further results
CCN(CC)C(=O)c1ccc(C2=CC3(CCNCC3)Oc3ccccc32)cc1 [Example 1A] |  |  |  |  | Ki [1]: 980 nM; IMMOBILITY (% Decrease) ([2]; 3 mg/kg p.o.): 17 ± 10%; SWIMMING (% Increase) ([2]; 3 mg/kg p.o.): 37 ± 17%; IMMOBILITY (% Decrease) ([2]; 30 mg/kg p.o.): 43 ± 13 %; SWIMMING (% Increase) ([2]; 30 mg/kg p.o.): 137 ± 35 %; Ki [3]: > 1000 nM
CCN(CC)C(=O)c1ccc(C2=CC3(CCNCC3)Oc3ccccc32)cc1 [Example Z1, 4-[(4-N,N-diethylaminocarbonyl)phenyl]-spiro[2H,1-benzopyran-2,4′-piperidine]hydrochloride] | 32 |  |  |  | ED50 [4]: 8.7 mg/kg; ED50 ([5]; Rattus norvegicus, po): 2.5 mg/kg; increase of Paw Pressure Thresholds (PPT) in the inflamed paw ([5]; inflamed paw, 1-2 h after oral administration): 170-180%; inhibition of acetic acid-induced writhing [6]: 69%
CCN(CC)C(=O)c1ccc(C2=CC3(CCNCC3)Oc3ccc(F)cc32)cc1 [Example Z2, 4-[(4-N,N-diethylaminocarbonyl)phenyl]-6-fluoro-spiro[2H,1-benzopyran-2,4′-piperidine]hydrochloride] | 17 | 2.6 | 70 |  | Ki [1]: 4500 nM
CCN(CC)C(=O)c1ccc(C2=CC3(CCNCC3)Oc3ccc(O)cc32)cc1.Cl [Example Z3, 4-[(4-N,N-diethylaminocarbonyl)phenyl]-6-hydroxyspiro[2H,1-benzopyran-2,4′-piperidine]hydrochloride] |  |  | 1.4 |  | Ki [7, 9]: 0.36 nM; % Inhibition at 10 μM (μ) [1]: 50%; Ki ([3]; [3H]diprenorphine displacement, cloned human κ opioid receptor, read-out: Ki(κ)): 790 nM
CCN(CC)C(=O)c1ccc(C2CC3(CCNCC3)Oc3ccccc32)cc1.Cl (centres unmarked) [Example Z4, 4-[(4-N,N-diethylaminocarbonyl)phenyl]-3,4-dihydrospiro[2H,1-benzopyran-2,4′-piperidine]hydrochloride] |  |  |  |  | % Inhibition at 10 μM (μ) [1]: 34%; % Inhibition at 10 μM (κ) ([3]; cloned human κ opioid receptor): 19%
CCN(CC)C(=O)c1ccc(C2=CC3(CCN(C)CC3)Oc3ccccc32)cc1 [Example Z5, 4-[(4-N,N-diethylaminocarbonyl)phenyl]-N-methyl-spiro[2H,1-benzopyran-2,4′-piperidine]hydrochloride] | 23 | 5.8 | 140 | 17 | 
CCCN(CC1CC1)C(=O)c1ccc(C2=CC3(CCNCC3)Oc3ccccc32)cc1 [Example Z7, 4-[(4-N-propyl-N-cyclopropylmethylaminocarbonyl)phenyl]-spiro[2H,1-benzopyran-2,4′-piperidine]hydrochloride] | 51 | 1.7 | 29 |  | Ki [1]: 2500 nM
O=C(O)C1CCN(C(=O)c2ccc(C3=CC4(CCNCC4)Oc4ccccc43)cc2)CC1 [Example Z9, 4-[4-(4-carboxypiperidineaminocarbonyl)phenyl]-spiro[2H,1-benzopyran-2,4′-piperidine]hydrochloride] | 24 | 15 | 160 | 17 | 
C1=C(c2ccc(-c3nn[nH]n3)cc2)c2ccccc2OC12CCNCC2.O=C(O)C(F)(F)F [Example Z10, 4-[4-(2H-tetrazolyl)phenyl]-spiro[2H,1-benzopyran-2,4′-piperidine]trifluoroacetic acid salt] |  |  | 22 |  | Ki [7, 9]: 2.7 nM; % Inhibition at 10 μM (μ) [1]: 29%; % Inhibition at 10 μM (κ) ([3]; cloned human κ opioid receptor): 1.3%
O=C(O)CCCn1nnc(-c2ccc(C3=CC4(CCNCC4)Oc4ccccc43)cc2)n1 [Example Z11, 4-[4-(4-carboxypropyl-tetrazol-2-yl)phenyl]-spiro[2H,1-benzopyran-2,4′-piperidine]] | -3.3 | 8 | 140 | 3.7 | 
C1=C(c2cccnc2)c2ccccc2OC12CCNCC2 [Example Z12, 4-(3-pyridyl)-spiro[2H,1-benzopyran-2,4′-piperidine]hydrochloride] | 44 | 54 |  | 36 | 
CS(=O)(=O)c1ccc(C2=CC3(CCNCC3)Oc3ccccc32)cc1 [Example Z13, 4-[4-(methanesulfonyl)-phenyl]-spiro[2H,1-benzopyran-2,4′-piperidine]hydrochloride] | 17 | 28 |  | 41 | 
CCN(CC)C(=O)c1ccc(C2=CC3(CC4CCC(C3)N4)Oc3ccccc32)cc1 (centres unmarked) [Example Z14, 4-[(4-N,N-diethylaminocarbonyl)phenyl]spiro[2H,1-benzopyran-2,4′-nortropine]hydrochloride] | 8 | 26 |  | 24 | 
